Entries after “also recorded” stand apart in the source; their conditions may differ. No end group written: not given here.
What was measured:
[1] = system: HAMP mRNA; assay: HAMP mRNA induction by BMP6, BMP9 or IL-6 in hepatoma cells pre-treated with TNF-alpha (qRT-PCR); assay type: cell-based, human; conditions: TNF-alpha treatment
Experimental: (§1) RNA extraction and cDNA synthesis were carried out by using either RNeasy kits with QIAshredder homogenization (both Qiagen) and the High capacity RNA-to-cDNA kit (Applied Biosystems), or by using the Cells-to-Ct kit (Applied Biosystems), all according to the manufacturers' protocols. qRT-PCR reactions were performed on an Applied Biosystems Fast 7500 Real-Time PCR System (Applied Biosystems). Gene expression was assessed using inventoried Taqman Gene Expression Assays (Applied Biosystems) (see table 4 for assay codes) with Taqman Gene Expression Master Mix (Applied Biosystems) following the manufacturer's instructions. cDNA was diluted in Nuclease-Free Water (Ambion) to achieve a final concentration of 1-3 ng/uL. Samples were run in duplicate and gene expression levels were quantified relative to glyceraldehyde-3-phosphate dehydrogenase (GAPDH) mRNA expression using the delta Ct method; in some cases relative expression was then quantified further by normalizing to the untreated controls (delta-delta Ct method).
(§2) The hepatoma cell line Hep3B were maintained in MMEM supplemented with 10% foetal calf serum (PAA), 2 mM glutamine, 100 U/mL penicillin, 0.1 mg/mL streptomycin (all Sigma). HuH7 and HuH7.5 cells were cultured in DMEM supplemented as above. HuH7.5 cells infected at a MOI of 0.02 or hepatoma cells pre-treated for 48 h with TNF-alpha at 20 ng/mL were incubated overnight with titrations of human recombinant BMP6 or BMP9, and in the case of TNF-alpha treated cells IL-6 (all R&D Systems). Titrations of TNF-alpha were applied for 48 h prior to RNA extraction. A neutralizing anti-TNF-alpha antibody (clone 1825), (R&D Systems) supplemented the culture medium of HCV infected HuH7.5 cells at 0.2 μg/mL and was added at each sub culture from 2 days post infection to the end of the infection course. Uninfected cells were cultured and treated in parallel with the HCV infected cells.

[2] = system: BMP/SMAD signalling pathway; assay: HJV, SMAD6 and SMAD7 mRNA in uninfected hepatoma (Hep3B) cells incubated with TNF-alpha (qRT-PCR); assay type: cell-based, human
Experimental: as §1, §2

[3] = system: SMAD1/5/8 phosphorylation; assay: Western blot of p-SMAD1/5/8 in Hep3B cells pre-treated with TNF-alpha and exposed to BMP6; assay type: cell-based, human
Experimental: Hep3B cells were exposed to TNF-alpha at 20 ng/mL for 48 hours before the addition of BMP6 at an end concentration of 2 nM. Lysates were harvested at either 1 h or 18 h post addition of BMP6. Briefly, cells were trypsinised and lysed for 20 min on ice in NP40 1% buffer supplemented with protease inhibitors (Sigma) at 1:500 and phosphatase inhibitor cocktail 2 (Sigma) at 1:100. The lysates were spun at 4° C., 13,000 rpm for 5 minutes and the supernatants stored at −80° C. until the blot was performed. Briefly, the protein content of the lysates was normalised using the BCA assay (Pierce) and run on 12% SDS-PAGE mini gels. Gels were blotted onto nitrocellulose membranes (GE Healthcare) and then blocked for 1 hour at room temperature in PBS containing 5% (w/v) milk. Membranes were then probed overnight at 4° C. in TBS-TWEEN containing 5% (w/v) BSA with the following primary antibodies: mouse anti-beta-actin (loading control) (Sigma), mouse anti-rabbit IgG (negative control) (Dako), rabbit anti-pSMAD1/5/8 (Cell Signalling), or rabbit anti-H.Pylori (negative control) (Dako). […] Membranes were developed using ECL reagent (GE Healthcare), films were scanned using an AlphaScan (Alpha Innotech) running Epson Scan software (Seiko Epson), and band intensities were determined using ImageQuant5.2 (Molecular Dynamics).

[4] = system: HCV (Jc1 HCV strain); assay: Antiviral experiments: HCV-RNA in supernatants and cells of HCV-infected HuH7.5 cells (qRT-PCR); assay type: cell-based, hepatitis C virus
Description: The Jc1 HCV strain was produced as described previously (Reference 20). Briefly, HuH7.5 cells were transfected with Jc1 RNA by electroporation and supernatants harvested 14-20 days post transfection. HuH7.5 cells were infected at a multiplicity of infection (MOI) of 0.02 unless otherwise stated. Infection was allowed to proceed for 9-11 days at which point infection was greater than 90% as determined by immunofluorescence (also described in Reference 20).
5 day time course: cells infected as described above at a MOI of 0.02 for 2 h were plated and then immediately treated with BMP6 at the doses stated in the figures for the duration of the infection. 10 day time course: cells infected for 2 h were plated and incubated for 3 days. Cells were sub-cultured and BMP6 added at the stated doses. Additional doses of the same concentration were applied at further sub-culturing to maintain the dose. For both time courses, IFNa (PBL Biomedical Laboratories) was added at 1000 U overnight either at day 4 (5 day time course) or day 9 (10 day time course). Supernatant RNA extraction was performed using QIAamp viral RNA extraction kit and total cellular RNA was extracted using RNeasy kit (both Qiagen). cDNA was then transcribed using the Superscript III Reverse transcriptase (Invitrogen) (random hexamers), all according to the manufacturers' protocols. HCV-RNA levels were measured using qRT-PCR in a LightCycler 480 Real-Time PCR System (Roche). cDNA at 10-100 ng/uL was amplified using RC1 (5′ […] 3′ (SEQ ID NO:3)) and RC21(5′ […] 3′ (SEQ ID NO:4)) primers. Each reaction was run in duplicate. HCV-RNA levels were quantified using a standard curve derived from HCV Jc1 cDNA.

[5] = system: Influenza A Virus Strain PR8; assay type: cell-based; conditions: infected HuH7 cells mixed 1:10 with uninfected, cultured 24 hours; compared with interferon alpha and beta; FIG. 2
[6] = 1 uM hepcidin peptide added 3 days after HCV inoculation, a further 7 days, FIG. 11

For TNF-alpha, the “mean suppression of HAMP mRNA upregulation in response to BMP6” value ([1]; FIG. 9b) was 16.8 fold, the “mean suppression of HAMP mRNA upregulation in response to BMP9” value ([1]; FIG. 9c) was 4.3 fold and the “hepcidin response to IL-6” value ([1]; FIG. 10) was “blunted”. The “HJV mRNA levels” value ([2]; FIG. 5e) was “reduced”, the “SMAD6 mRNA” value ([2]; FIG. 5f) was “increased” and the “SMAD7 mRNA” value ([2]; FIG. 5f) was “increased”. The “inhibition of SMAD1/5/8 phosphorylation stimulated by BMP6” value ([3]; 18 hr exposure to BMP6, TNF-alpha pre-treatment) was roughly 35% and the “p-SMAD1/5/8 after incubation with BMP6” value ([3]; Hep3B cells, BMP6 for both 1 hr and 18 hr, FIG. 9a) was “reduced”.

“hepcidin: hepcidin peptide, the iron regulatory hormone encoded by HAMP, added exogenously at 1 uM (DTHFPICIFCCGCCHRSKCGMCCKT; ends and bridges not checked; cysteine pairing not given here; UniProt P81172 60-84, looked up)” was tested, and the “HCV RNA in cells” value [4, 6] was “not significantly altered”, the “HCV RNA in supernatant” value [4, 6] was “not significantly altered” and the “effect on HCV replication” value ([4]; FIG. 11) was “No specific effect”.

B1: BMP6: human recombinant BMP6 (R&D Systems), a bone morphogenetic protein that stimulates the BMP/SMAD signalling pathway (protein, UniProt P22004 375-513, looked up)
Bone morphogenetic protein 6: SASSRRRQQSRNRSTQSQDVARVSSASDYNSSELKTACRKHELYVSFQDLGWQDWIIAPKGYAANYCDGECSFPLNAHMNATNHAIVQTLVHLMNPEYVPKPCCAPTKLNAISVLYFDDNSNVILKKYRNMVVRACGCH
For B1, the “spread of the Influenza virus (level of haemagglutinin)” value [5] was “restricts spread of the Influenza virus”, the “viral RNA in supernatants, established infection” value (“viral RNA in supernatants” below) ([4]; 2 nM BMP6 added after 3 days of HCV replication, measured after a further 7 days) was “reduced modestly” and the “viral RNA in supernatants” value ([4]; 6 nM BMP6 added after 3 days of HCV replication, measured after a further 7 days) was “reduced modestly”. For the same molecule, the “culture supernatant HCV RNA after 5 days” value ([4]; 5 days post-infection, BMP6 at all doses for the duration of the infection, IFNa overnight, FIG. 12b) was “significantly reduced; also recorded: significantly lower”, the “viral RNA in supernatants” value ([4]; 10 days post-infection, 18 nM BMP6 for 7 days or IFNa overnight, FIG. 12c) was “lower” and the “cellular HCV RNA, established infection” value ([4]; 10 days post-infection, 18 nM BMP6 for 7 days or IFNa overnight, FIG. 12d) was “significantly reduced; also recorded: lower”. The “accumulation of HCV RNA in culture supernatants over time” value ([4]; BMP6 added immediately after infecting HuH7.5 cells, 5 day time course, FIG. 12a) was “severely restricted; also recorded: reduced” and the “suppression of HCV growth” value ([4]; in vitro live virus model, over 5 days) was “over 90%”.

— patent US20130012429A1, “ANTI-VIRAL THERAPY” (priority 2011, published 2013)
